Measured values published in patent publication US11207301B2, “Sphingosine 1 phosphate receptor agonists for neuroprotection” (RECEPTOS LLC, priority 2017, dated 2021).
“Also recorded” adds a separate entry of the source.

Tests used:
Recombinant human MAO-A = biological target: T1, Recombinant human MAO-A (Homo sapiens, UniProt P21397); assay: MAO-A inhibition, conversion of kynuramine to 4-hydroxyquinoline; format: biochemical; details: tested up to 100 μM
T1 construct: purchased Sigma-Aldrich M7316; host or cells: baculovirus infected insect cells
T1 sequence (P21397 1-527): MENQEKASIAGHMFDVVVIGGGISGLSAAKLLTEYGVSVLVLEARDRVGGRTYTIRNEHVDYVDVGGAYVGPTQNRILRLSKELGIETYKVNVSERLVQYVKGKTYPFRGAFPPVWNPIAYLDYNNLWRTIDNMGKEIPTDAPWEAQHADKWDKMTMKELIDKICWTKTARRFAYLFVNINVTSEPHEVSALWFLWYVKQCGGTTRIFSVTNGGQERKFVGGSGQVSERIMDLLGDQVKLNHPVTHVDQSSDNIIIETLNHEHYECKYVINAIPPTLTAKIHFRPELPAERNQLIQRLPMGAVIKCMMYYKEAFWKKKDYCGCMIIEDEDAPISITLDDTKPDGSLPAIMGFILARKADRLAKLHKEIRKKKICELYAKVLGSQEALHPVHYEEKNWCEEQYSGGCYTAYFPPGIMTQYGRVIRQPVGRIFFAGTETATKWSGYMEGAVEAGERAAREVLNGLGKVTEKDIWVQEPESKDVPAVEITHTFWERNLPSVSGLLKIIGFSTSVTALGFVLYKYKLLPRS
Procedure: The effect of a S1P receptoragonist on MAO-B activity can be assessed by measuring the inhibition of conversion of substrate kynuramine to 4-hydroxyquinoline as described in Example 4.
Compound 1 and Compound 2-S were evaluated for their ability to inhibit MAO-A and MAO-B. Inhibition of the conversion of kynuramine, a substrate for MAO-A and MAO-B, to 4-hydroxyquinoline was used to assess the inhibitory potential of Compound 1 and Compound 2-S. Recombinant human MAO-A (product number M7316) and MAO-B (product number M7441) expressed in baculovirus infected insect cells were obtained from Sigma-Aldrich, Saint Louis, Mo. USA were used as a source of purified MAOs.
Recombinant MAO-A (0.01 mg/mL, final concentrations) and MAO-B (0.02 mg/mL, final concentration) were diluted to desired concentrations in 100 mM potassium phosphate buffer (pH 7.4) containing 5 mM MgCl2. The diluted protein fractions were preincubated with various concentrations of each test compound at 37° C. for 2 min. The concentrations used were 100, 33, 10, 3.3, 1.0, 0.33 μM and acetonitrile/DMSO as vehicle control for MAO-A and 1.0, 0.3, 0.1, 0.03, 0.01, 0.003 μM and acetonitrile/DMSO as vehicle control for MAO-B. The reaction was started by addition of kynuramine to the incubation mixture. The final concentration of kynuramine was 40 μM for MAO-A and 25 μM for MAO-B. The total incubation volume was 0.250 mL. […] The reaction product, 4-hydroxyquinoline was analyzed by LC-MS/MS as described below. […]
The gradient system was used to separate the analytes with a flow rate of 0.5 ml/min using mobile phase A, water containing 0.1% formic acid and mobile phase B, acetonitrile containing 0.1% formic acid. […] The analytes were monitored using multiple reaction monitoring and the ion transitions (Q1/Q3) were as follows: 4-hydroxyquinoline 146/104 (collision energy, CE was 27; declustering potential, DP, 50, and IS (acetaminophen), 152/110 (collision energy, CE was 27; declustering potential, DP, 50). All data were analyzed using AB Sciex Analyst v1.6.2 software.

[1] = system: relapsing multiple sclerosis (RMS) patients; assay: Brain volume loss in phase 3 RMS studies SUNBEAM and RADIANCE Part B vs interferon beta-1a; format: in vivo, human
Description: As mentioned above, ozanimod is in clinical development for treatment of relapsing multiple sclerosis (RMS). Brain volume loss (BVL) correlates with and predicts disability and is thought to be a marker of long-term disease progression and cognitive impairment. Accordingly, reducing BVL is an important treatment goal. In this example, BVL results are reported from two similarly-designed phase 3 RMS studies.
SUNBEAM (N=1346) and RADIANCE Part B (N=1320) were randomised, double-blind, double-dummy, active-controlled, parallel-group studies of the efficacy (primary outcome annualised relapse rate) and safety of once-daily ozanimod 1 mg or 0.5 mg vs intramuscular interferon beta-1a (IFNβ-1a) 30 μg for ≥12 months (m) (SUNBEAM) or 24 m (RADIANCE). BVL was evaluated using the Jacobian integration method to assess changes in normalised whole brain, cortical grey matter, and thalamic volumes. Rank analysis of covariance was performed with treatment effects reported as percent reductions in median percent BVL from baseline.

[2] = RADIANCE (24 m), 1 mg once daily, p<0.0001
[3] = SUNBEAM (12 m), 1 mg once daily, p<0.0001

SMILES | MAO-A inhibition (in words) (Recombinant human MAO-A) | slowing of cortical grey matter loss with respect to IFN ([1]; RADIANCE (24 m), 0.5 mg once daily, p<0.0001) [%] | slowing of whole BVL vs IFN ([1]; RADIANCE (24 m), 0.5 mg once daily, p=0.0001) [%] | slowing of thalamic BVL vs IFN ([1]; RADIANCE (24 m), 0.5 mg once daily, p=0.0008) [%] | slowing of cortical grey matter loss with respect to IFN [1, 2] [%] | slowing of thalamic BVL vs IFN [1, 2] [%] | slowing of whole BVL vs IFN [1, 2] [%] | slowing of cortical grey matter loss with respect to IFN ([1]; SUNBEAM (12 m), 0.5 mg once daily, p<0.0001) [%] | slowing of thalamic BVL vs IFN ([1]; SUNBEAM (12 m), 0.5 mg once daily, p=0.0001) [%] | slowing of whole BVL vs IFN ([1]; SUNBEAM (12 m), 0.5 mg once daily, p=0.0615) [%] | slowing of cortical grey matter loss with respect to IFN [1, 3] [%] | slowing of thalamic BVL vs IFN [1, 3] [%] | slowing of whole BVL vs IFN [1, 3] [%]
CC(C)Oc1ccc(-c2nc(-c3cccc4c3CCC4=O)no2)cc1C#N [Compound 1, 2-isopropoxy-5-(3-(1-oxo-2,3-dihydro-1H-inden-4-yl)-1,2,4-oxadiazol-5-yl)benzonitrile] | not an inhibitor; also recorded: does not inhibit |  |  |  |  |  |  |  |  |  |  |  | 
CC(C)Oc1ccc(-c2nc(-c3cccc4c3CC[C@@H]4NCCO)no2)cc1C#N [Ozanimod] |  | 55.1 | 24.5 | 30.1 | 58.3 | 31.9 | 26.6 | 61.4 | 34.3 | 12.3 | 83.8 | 38.5 | 32.5
